# Measurements from patent US11608353B2, “Amylase inhibitor compounds, methods of their use and compositions thereof” (THE UNIVERSITY OF BRITISH COLUMBIA, priority 2016, dated 2023).
# Changes are numbered by the printed parent chain. Values joined by “and” are separate entries in the source; they are usually repeats but may differ in a detail not shown here. Equal entries are not always repeated. Where two headings read alike, the source gives them in different places.
# Key:
# [1] = molecular target: T1, human pancreatic α-amylase (HPA) (Homo sapiens, UniProt P04746); experiment: Inhibition of wild-type human pancreatic α-amylase (HPA), kinetic KI determination with CNP-G3; format: biochemical
# T1 construct: made in house; host or cells: Pichia pastoris strain GM5011
# T1 sequence (P04746 16-511): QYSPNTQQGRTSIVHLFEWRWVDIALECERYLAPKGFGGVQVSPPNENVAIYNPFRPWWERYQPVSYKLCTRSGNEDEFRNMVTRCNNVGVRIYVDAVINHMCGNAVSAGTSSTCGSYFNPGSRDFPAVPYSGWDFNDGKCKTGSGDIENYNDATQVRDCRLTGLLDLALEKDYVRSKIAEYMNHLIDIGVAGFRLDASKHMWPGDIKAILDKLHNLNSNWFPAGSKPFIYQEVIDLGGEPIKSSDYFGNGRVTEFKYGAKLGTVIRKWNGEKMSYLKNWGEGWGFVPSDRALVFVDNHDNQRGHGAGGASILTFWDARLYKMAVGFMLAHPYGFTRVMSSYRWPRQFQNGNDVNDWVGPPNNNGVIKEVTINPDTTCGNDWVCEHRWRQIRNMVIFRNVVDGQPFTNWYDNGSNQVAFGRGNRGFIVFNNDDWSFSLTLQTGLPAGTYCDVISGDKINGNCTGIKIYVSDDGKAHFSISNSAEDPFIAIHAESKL
# H. sapiens ctSI = molecular target: T2, H. sapiens ctSI (Homo sapiens, UniProt P14410); experiment: Inhibition of C-terminal domain of sucrose-isomaltase; format: biochemical
# T2 construct: H. sapiens ctSI
# T2 sequence (P14410 1008-1827 limits assumed): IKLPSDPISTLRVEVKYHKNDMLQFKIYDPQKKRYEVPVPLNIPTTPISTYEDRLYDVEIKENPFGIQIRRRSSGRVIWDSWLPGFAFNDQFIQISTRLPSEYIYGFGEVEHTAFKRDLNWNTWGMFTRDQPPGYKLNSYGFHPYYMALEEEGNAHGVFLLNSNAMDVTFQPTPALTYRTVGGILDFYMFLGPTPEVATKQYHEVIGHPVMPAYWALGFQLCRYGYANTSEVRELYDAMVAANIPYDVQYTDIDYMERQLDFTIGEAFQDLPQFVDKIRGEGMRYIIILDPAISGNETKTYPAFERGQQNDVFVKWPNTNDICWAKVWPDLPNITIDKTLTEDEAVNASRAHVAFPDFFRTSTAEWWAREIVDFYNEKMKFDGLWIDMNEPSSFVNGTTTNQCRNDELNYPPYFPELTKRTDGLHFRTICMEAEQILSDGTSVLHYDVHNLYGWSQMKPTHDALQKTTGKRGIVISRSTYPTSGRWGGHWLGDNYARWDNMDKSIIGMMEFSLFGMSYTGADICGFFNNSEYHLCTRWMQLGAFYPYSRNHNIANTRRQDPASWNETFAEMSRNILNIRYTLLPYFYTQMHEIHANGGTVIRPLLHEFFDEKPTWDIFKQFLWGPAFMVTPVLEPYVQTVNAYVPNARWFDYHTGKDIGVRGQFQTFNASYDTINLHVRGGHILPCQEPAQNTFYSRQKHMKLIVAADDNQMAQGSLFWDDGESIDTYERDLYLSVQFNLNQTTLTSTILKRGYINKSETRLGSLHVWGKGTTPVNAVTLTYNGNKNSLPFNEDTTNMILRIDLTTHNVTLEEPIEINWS
# H. sapiens ctMGAM = molecular target: T3, H. sapiens ctMGAM (Homo sapiens, UniProt O43451); experiment: Inhibition of C-terminal domain of maltase-glucoamylase; format: biochemical; settings: for Ki: GH family 31
# T3 construct: H. sapiens ctMGAM
# T3 sequence (O43451 1221-1632 limits assumed): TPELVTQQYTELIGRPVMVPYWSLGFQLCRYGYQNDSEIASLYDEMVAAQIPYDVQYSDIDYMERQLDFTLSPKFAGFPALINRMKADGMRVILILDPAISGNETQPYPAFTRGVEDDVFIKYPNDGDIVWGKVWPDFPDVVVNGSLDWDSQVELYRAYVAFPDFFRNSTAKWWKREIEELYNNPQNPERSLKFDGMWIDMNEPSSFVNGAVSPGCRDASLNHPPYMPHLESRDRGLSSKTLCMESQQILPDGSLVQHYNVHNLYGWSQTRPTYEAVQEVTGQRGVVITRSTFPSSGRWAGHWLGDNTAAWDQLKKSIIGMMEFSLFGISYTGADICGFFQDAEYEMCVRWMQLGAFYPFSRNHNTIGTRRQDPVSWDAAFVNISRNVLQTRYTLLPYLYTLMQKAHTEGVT
# Homo sapiens ntMGAM = molecular target: T4, Homo sapiens ntMGAM (Homo sapiens, UniProt O43451); experiment: Inhibition of N-terminal domain of maltase glucoamylase; format: biochemical; settings: for Ki: GH family 31
# T4 construct: Homo sapiens ntMGAM
# T4 sequence (O43451 356-737 limits assumed): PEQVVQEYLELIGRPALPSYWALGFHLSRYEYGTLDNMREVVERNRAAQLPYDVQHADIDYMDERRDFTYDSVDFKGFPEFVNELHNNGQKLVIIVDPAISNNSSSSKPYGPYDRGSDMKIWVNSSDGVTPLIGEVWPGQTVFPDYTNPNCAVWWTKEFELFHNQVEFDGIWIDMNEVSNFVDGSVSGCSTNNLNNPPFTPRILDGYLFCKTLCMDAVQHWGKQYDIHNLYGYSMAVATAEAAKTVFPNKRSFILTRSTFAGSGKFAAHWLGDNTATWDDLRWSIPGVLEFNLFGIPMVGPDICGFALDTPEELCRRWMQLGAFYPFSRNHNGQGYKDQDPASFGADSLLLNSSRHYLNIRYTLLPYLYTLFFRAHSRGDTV
# [2] = molecular target: Roseburia inulinivorans Amy A (Roseburia inulinivorans, UniProt A0ACG1Y5C3); experiment: Inhibition of gut bacterial amylase Roseburia inulinivorans Amy A; format: biochemical; settings: for Ki: GH family 13
# Sequence of Roseburia inulinivorans Amy A (A0ACG1Y5C3 entry or part of it): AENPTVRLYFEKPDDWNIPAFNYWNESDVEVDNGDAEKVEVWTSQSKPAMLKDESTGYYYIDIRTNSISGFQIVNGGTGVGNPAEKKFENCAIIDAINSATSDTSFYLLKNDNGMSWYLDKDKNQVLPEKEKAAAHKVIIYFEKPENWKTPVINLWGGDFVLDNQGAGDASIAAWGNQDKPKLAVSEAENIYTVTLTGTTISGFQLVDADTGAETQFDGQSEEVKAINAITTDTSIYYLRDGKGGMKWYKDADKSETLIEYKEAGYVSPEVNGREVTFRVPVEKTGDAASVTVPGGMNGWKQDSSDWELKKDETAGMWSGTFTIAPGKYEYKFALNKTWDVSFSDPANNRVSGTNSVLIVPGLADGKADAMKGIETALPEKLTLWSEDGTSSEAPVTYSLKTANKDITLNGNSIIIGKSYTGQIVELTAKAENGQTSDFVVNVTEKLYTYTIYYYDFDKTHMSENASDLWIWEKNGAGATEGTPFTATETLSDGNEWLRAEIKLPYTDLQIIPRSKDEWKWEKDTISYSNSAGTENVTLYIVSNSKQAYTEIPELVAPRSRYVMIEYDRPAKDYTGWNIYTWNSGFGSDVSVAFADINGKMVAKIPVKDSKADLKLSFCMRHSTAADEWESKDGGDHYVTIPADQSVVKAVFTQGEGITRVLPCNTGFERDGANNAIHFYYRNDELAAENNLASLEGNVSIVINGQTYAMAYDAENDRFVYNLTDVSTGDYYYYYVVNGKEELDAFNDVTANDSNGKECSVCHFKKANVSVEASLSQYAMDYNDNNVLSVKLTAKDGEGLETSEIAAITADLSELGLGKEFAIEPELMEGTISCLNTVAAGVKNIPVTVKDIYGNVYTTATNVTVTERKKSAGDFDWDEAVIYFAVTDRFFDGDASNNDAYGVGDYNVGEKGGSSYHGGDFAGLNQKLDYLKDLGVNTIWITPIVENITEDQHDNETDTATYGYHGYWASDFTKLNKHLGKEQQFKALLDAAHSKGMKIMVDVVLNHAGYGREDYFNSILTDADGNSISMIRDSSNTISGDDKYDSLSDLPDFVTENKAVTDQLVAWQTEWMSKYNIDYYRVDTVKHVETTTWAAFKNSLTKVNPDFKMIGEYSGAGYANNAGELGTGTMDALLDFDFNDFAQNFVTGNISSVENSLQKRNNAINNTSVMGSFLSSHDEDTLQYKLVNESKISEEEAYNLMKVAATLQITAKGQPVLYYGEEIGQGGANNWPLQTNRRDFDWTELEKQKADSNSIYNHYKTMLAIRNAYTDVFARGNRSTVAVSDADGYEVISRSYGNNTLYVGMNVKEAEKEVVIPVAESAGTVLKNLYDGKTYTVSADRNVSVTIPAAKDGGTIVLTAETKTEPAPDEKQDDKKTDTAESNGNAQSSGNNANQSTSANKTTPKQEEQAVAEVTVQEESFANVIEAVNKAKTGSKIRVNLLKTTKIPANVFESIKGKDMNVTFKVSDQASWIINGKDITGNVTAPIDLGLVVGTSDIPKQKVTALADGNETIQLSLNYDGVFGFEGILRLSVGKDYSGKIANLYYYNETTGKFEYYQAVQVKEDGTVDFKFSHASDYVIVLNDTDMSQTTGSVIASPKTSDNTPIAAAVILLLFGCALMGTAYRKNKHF
# [3] = molecular target: Butyrivibrio fibrisolvens Amy B; experiment: Inhibition of gut bacterial amylase Butyrivibrio fibrisolvens Amy B; format: biochemical
# H299N HPA = molecular target: T5, H299N HPA (Homo sapiens, UniProt P04746, H314N); experiment: Inhibition of H299N variant HPA, kinetic KI determination; format: biochemical; settings: variant used for co-crystallization; read-out: KI for inhibition of the H299N HPA variant enzyme
# T5 construct: made in house; host or cells: Pichia pastoris strain GM5011
# T5 sequence (P04746 16-511 H314N): T1 sequence (P04746 16-511) with H299N
# Procedure: Kinetic Studies. The inhibition constants (KI) of montbretins A-E and MbA substructures for wild-type HPA, along with MbA for H299N HPA were determined by measuring the rates of reactions at different inhibitor and substrate concentrations. […] 2-Chloro-4-nitrophenyl α-D-maltotrioside (CNP-G3) was used as the substrate in a similar range of concentrations. Initial reaction rates for the release of chloronitrophenolate were measured and the further progress of substrate cleavage monitored continuously. Reactions were performed on a Varian Cary 4000 UV/Vis spectrophotometer at 400 nm and 30° C. Observed reaction rates were fitted directly to various inhibition models using GraFit version 5.0.13 and KI values were determined. Competitive inhibition provided the best fit in each case.
# [4] = molecular target: T1, human pancreatic α-amylase (HPA); settings: literature value, reference (5); read-out: Ki, binds to HPA; cited from earlier work
# diabetic rat model = settings: McNeill, unpublished data; cited from earlier work
# [5] = Tables 4 and 5, read-out: Ki (HPA Inhibition)
# [6] = tested at 100 μM, read-out: Ki With MbA-GRX
# [7] = Table 6, GH family 13, mean ± s.d., read-out: Ki (nM), HPA
# [8] = wild-type HPA, CNP-G3 substrate, pH 7.0, 30° C., competitive inhibition model, read-out: Ki of HPA
# [9] = tested at 500 μM, read-out: Ki with MbA
molecule,measurement,setting,value
O=C(/C=C/c1ccc(O)c(O)c1)NC[C@H]1O[C@@H](O[C@H]2[C@H](O)[C@@H](O)[C@H](Oc3c(-c4ccc(O)c(O)c4)oc4cc(O)cc(O)c4c3=O)O[C@@H]2CO)[C@H](O)[C@@H](O)[C@@H]1O [11 (6-aminoGlc)],Ki,[1]; [5],70000 nM
O=C(/C=C/c1ccc(O)c(O)c1)N[C@@H]1[C@H](O)[C@@H](O)[C@H](O[C@H]2[C@H](O)[C@@H](O)[C@H](Oc3c(-c4ccc(O)c(O)c4)oc4cc(O)cc(O)c4c3=O)O[C@@H]2CO)O[C@@H]1CO [12 (4-aminoGal)],Ki,[1]; [5],45000 nM
O=C(/C=C/c1ccc(O)c(O)c1)NCCOCCOCCOc1c(-c2ccc(O)c(O)c2)oc2cc(O)cc(O)c2c1=O [Compound 02],Ki,[1]; [5],82000 nM
O=C(/C=C/c1ccc(O)c(O)c1)NCCCOc1c(-c2ccc(O)c(O)c2)oc2cc(O)cc(O)c2c1=O [Compound 03],Ki,[1]; [5],145000 nM
O=C(/C=C/c1ccc(O)c(O)c1)NCCCCCCCOc1c(-c2ccc(O)c(O)c2)oc2cc(O)cc(O)c2c1=O [Compound 05],Ki,[1]; [5],4000 nM
CC1O[C@@H](Oc2c(-c3cc(O)c(O)c(O)c3)oc3cc(O)cc(O)c3c2=O)C(O[C@@H]2OC(COC(=O)/C=C/c3ccc(O)c(O)c3)[C@@H](O)[C@@H](O)C2O)[C@@H](O)[C@H]1O (stereo partly drawn) [MbA-1GRX],IC50,H. sapiens ctSI,75.5 µM
same,Ki,H. sapiens ctMGAM; [6],> 100 µM
same,inhibition of maltase-glucoamylase (in words),H. sapiens ctMGAM; MbA-GRX,No inhibition
same,Ki,[1]; [7],93.3 ± 7.6 nM
same,poorer at binding to the active site of HPA than the full structure of MbA,[1]; relative to MbA (KI=4.4 nM),~25 ×
same,Ki,[1]; [8],93 nM and 93.3 nM
same,Ki,Homo sapiens ntMGAM; [6],> 100 µM
same,inhibition of maltase-glucoamylase (in words),Homo sapiens ntMGAM; MbA-GRX,No inhibition
same,Ki,[2]; [6],> 100 µM
CC1O[C@@H](Oc2c(-c3cc(O)c(O[C@@H]4OC[C@@H](O)C(O)C4O)c(O)c3)oc3cc(O)cc(O)c3c2=O)C(O[C@@H]2OC(COC(=O)/C=C/c3ccc(O)c(O)c3)[C@@H](O)C(O)C2O)C(O)[C@H]1O (stereo partly drawn) [MbA-1GR],Ki,[1]; [8],79 nM and 79.3 nM
CC1O[C@@H](Oc2c(-c3cc(O)c(O)c(O)c3)oc3cc(O)cc(O)c3c2=O)C(O[C@@H]2OC(COC(=O)/C=C/c3ccc(O)c(O)c3)[C@@H](O)[C@@H](O)C2O[C@@H]2OC(CO)[C@@H](O)[C@@H](O)C2O)[C@@H](O)[C@H]1O (stereo partly drawn) [MbA-RX],Ki,[1]; [8],43 nM and 42.4 nM
Montbretin D [MbD],inhibitory activity against HPA (in words),[1],poor inhibitory activity
Montbretin E [MbE],inhibitory activity against HPA (in words),[1],poor inhibitory activity
Quercetin/Myricetin,Ki,[1]; [5],100000 nM
montbretin A [MbA],Ki,[3],1.6 µM
same,Ki,"H. sapiens ctSI; GH family 31, tested at 500 μM, read-out: Ki with MbA",> 500 µM
same,inhibition of human sucrose isomaltase (SI) (in words),H. sapiens ctSI; concentrations up to 500 μM,Neither the human maltase-glucoamylase (MGAM) nor the human sucrose isomaltase (SI) was inhibited
same,Ki,H. sapiens ctMGAM; [9],> 500 µM
same,inhibition of human maltase-glucoamylase (MGAM) (in words),H. sapiens ctMGAM; concentrations up to 500 μM,Neither the human maltase-glucoamylase (MGAM) nor the human sucrose isomaltase (SI) was inhibited
same,Ki,[1]; [7],8.1 nM
same,Ki,[1]; [5],8 nM
same,Ki,[1]; [8],4.4 nM
same,Ki,H299N HPA,0.124 µM
same,Ki,[4],0.008 µM
same,reducing postprandial glucose spiking and delaying the onset of diabetes,diabetic rat model,superior to other inhibitors
same,Ki,Homo sapiens ntMGAM; [9],> 500 µM
same,inhibition of human maltase-glucoamylase (MGAM) (in words),Homo sapiens ntMGAM; concentrations up to 500 μM,Neither the human maltase-glucoamylase (MGAM) nor the human sucrose isomaltase (SI) was inhibited
same,inhibition of gut bacterial amylase (in words),[2],not inhibited at all
same,Ki,[2]; [9],> 500 µM
montbretin B [MbB],decrease in inhibitory activity,"[1]; relative to MbA, reference (5)",~1000 ×
montbretin C [MbC],lower inhibition for HPA than MbB,[1]; relative to MbB,2 ×
